In ChEMBL document CHEMBL1201862, “PubChem BioAssay data set” (2004):
The source made the active and inactive calls.

Assays:
[1] = target: Nucleotide-binding oligomerization domain-containing protein 2 (Homo sapiens, UniProt Q9HC29); experiment: NOD2 signaling inhibitors, cell-based, luminescence, uHTS, HEK293 (AID 1566); type: functional
HEK293 [2] = experiment: NOD2 signaling inhibitors in MDP-stimulated cells, cell-based, uHTS, luminescence (AID 2001); type: functional; conditions: Homo sapiens
HEK293 [3] = experiment: cells; type: functional, cell-based; conditions: Homo sapiens
Nonstructural protein 1 = Nonstructural protein 1 (Influenza A virus, UniProt Q194T2); type: functional, Influenza A virus (A/California/07/2009(H1N1))
HEK293 [4] = experiment: cells; type: functional, cell-based; conditions: Homo sapiens; remark: listed apart in the source
HEK293 [5] = experiment: cells; type: functional, cell-based; conditions: Homo sapiens; remark: listed apart in the source
HEK293 [6] = experiment: NOD1 signaling inhibitors, primary screen, cell-based, luminescence, uHTS (AID 1578); type: functional; conditions: Homo sapiens
HEK293 [7] = experiment: cells; conditions: Homo sapiens
HEK293 [8] = experiment: cells; conditions: Homo sapiens; remark: listed apart in the source
Phosphomannomutase 2 = Phosphomannomutase 2 (Homo sapiens, UniProt O15305); experiment: Counter screen SAR assay for PMM2 inhibitors via a fluorescence intensity assay. [Related pubchem assays (depositor defined):AID1545, AID1574]
[9] = target: T1, Mannose-6-phosphate isomerase (Homo sapiens, UniProt P34949); experiment: PMI enzyme inhibitors, confirmation, biochemical, fluorescence intensity (AID 1535)
T1 sequence (P34949 whole entry): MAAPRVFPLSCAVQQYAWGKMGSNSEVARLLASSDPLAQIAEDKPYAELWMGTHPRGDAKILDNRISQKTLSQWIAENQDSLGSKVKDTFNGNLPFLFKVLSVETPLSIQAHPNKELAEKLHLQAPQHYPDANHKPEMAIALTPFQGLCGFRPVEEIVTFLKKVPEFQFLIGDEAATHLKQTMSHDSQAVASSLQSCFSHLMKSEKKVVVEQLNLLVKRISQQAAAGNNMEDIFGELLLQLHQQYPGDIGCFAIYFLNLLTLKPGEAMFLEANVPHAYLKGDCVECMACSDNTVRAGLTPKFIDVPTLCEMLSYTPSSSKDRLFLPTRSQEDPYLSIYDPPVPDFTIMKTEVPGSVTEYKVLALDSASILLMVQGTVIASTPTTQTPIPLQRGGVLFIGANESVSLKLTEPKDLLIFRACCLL

[10] = target: T1, Mannose-6-phosphate isomerase; experiment: inhibitors of human PMI, primary screen, biochemical, fluorescence intensity, coupled assay (AID 1209)
[11] = NIH-3T3 fibroblast cytotoxicity, dose response, cytotoxicity control, cell-based, fluorescence, Alamar Blue, secondary assay (AID 2327); type: functional;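 note: NIH-3T3 mouse fibroblasts cultured with fluconazole at 8 µg/mL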
[12] = target: T2, Replicative DNA helicase DnaB (Mycobacterium tuberculosis, UniProt P9WMR3); experiment: DnaB intein splicing inhibitors, dose response, biochemical, cell-free fluorescence (AID 449749); type: functional
T2 sequence (P9WMR3 whole entry): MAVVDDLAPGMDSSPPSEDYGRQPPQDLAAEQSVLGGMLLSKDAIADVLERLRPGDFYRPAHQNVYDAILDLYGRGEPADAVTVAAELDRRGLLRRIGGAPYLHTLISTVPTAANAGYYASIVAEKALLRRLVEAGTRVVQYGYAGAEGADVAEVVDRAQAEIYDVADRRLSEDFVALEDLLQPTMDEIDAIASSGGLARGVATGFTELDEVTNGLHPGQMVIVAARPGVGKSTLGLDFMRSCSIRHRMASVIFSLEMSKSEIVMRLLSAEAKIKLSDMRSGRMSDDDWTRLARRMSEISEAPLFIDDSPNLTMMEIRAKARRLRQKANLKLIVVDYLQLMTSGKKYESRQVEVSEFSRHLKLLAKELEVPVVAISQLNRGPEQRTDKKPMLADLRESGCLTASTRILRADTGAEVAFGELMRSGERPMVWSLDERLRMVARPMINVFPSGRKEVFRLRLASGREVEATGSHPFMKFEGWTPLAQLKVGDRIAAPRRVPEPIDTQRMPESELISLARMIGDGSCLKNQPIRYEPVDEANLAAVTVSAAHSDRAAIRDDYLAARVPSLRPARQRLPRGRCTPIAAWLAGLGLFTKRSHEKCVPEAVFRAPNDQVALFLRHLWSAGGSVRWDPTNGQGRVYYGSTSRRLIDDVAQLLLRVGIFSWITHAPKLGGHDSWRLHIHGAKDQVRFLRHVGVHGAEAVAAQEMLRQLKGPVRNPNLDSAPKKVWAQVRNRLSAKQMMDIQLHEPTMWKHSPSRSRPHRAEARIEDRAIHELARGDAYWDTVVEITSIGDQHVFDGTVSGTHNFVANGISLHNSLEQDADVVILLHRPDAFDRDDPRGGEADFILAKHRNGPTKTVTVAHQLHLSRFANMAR

SUMO-activating enzyme = SUMO-activating enzyme (Homo sapiens, UniProt Q9UBT2); experiment: SUMOylation inhibitor hit validation, confirmation, SUMOylation inhibitor project, biochemical, AlphaScreen (AID 2018); type: functional
[13] = target: T3, Apoptotic protease-activating factor 1 (Homo sapiens, UniProt O14727); type: functional
T3 sequence (O14727 whole entry): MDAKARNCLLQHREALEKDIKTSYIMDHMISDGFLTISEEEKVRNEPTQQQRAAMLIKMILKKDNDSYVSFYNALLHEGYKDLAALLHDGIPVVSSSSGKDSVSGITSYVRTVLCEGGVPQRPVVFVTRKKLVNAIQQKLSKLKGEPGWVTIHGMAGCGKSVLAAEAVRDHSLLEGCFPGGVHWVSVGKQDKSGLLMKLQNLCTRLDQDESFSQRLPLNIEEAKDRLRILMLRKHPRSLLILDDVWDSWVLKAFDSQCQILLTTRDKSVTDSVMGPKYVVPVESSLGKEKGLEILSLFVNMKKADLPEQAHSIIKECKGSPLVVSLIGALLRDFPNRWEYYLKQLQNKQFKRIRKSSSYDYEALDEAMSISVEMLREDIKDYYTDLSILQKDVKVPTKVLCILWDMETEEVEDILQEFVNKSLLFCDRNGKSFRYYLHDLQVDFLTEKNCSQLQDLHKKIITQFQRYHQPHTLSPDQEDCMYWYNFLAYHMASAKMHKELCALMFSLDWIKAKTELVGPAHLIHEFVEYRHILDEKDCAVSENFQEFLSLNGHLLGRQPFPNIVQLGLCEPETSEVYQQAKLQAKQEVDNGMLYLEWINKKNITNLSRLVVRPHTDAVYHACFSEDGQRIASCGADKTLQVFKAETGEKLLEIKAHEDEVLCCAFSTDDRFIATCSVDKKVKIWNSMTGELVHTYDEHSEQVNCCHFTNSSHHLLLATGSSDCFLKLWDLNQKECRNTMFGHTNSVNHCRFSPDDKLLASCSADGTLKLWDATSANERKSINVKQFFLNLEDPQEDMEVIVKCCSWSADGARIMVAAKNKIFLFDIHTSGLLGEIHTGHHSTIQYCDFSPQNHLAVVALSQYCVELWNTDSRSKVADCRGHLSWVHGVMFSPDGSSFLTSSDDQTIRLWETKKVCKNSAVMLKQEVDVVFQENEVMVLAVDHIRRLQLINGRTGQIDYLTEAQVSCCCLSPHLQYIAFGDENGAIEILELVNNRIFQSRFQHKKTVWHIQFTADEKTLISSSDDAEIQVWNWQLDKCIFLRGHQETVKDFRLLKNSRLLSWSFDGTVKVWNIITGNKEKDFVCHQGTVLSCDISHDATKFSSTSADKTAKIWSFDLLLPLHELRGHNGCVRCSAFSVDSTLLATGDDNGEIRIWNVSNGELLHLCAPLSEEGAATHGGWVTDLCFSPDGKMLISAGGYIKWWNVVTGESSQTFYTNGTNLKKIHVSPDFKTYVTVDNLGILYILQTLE

[14] = C. albicans growth with fluconazole, confirmation, fluorescence, retest (AID 2467); type: functional, cell-based
Protein RecA = target: T4, Protein RecA (Mycobacterium tuberculosis, UniProt P9WHJ3); experiment: Fluorescence Cell-Free Homogeneous Dose Retest to Identify Inhibitors of RecA-Intein Splicing Activity. [Related pubchem assays (depositor defined):AID2097, AID2223, AID489010, AID492950]; type: functional
T4 sequence (P9WHJ3 whole entry): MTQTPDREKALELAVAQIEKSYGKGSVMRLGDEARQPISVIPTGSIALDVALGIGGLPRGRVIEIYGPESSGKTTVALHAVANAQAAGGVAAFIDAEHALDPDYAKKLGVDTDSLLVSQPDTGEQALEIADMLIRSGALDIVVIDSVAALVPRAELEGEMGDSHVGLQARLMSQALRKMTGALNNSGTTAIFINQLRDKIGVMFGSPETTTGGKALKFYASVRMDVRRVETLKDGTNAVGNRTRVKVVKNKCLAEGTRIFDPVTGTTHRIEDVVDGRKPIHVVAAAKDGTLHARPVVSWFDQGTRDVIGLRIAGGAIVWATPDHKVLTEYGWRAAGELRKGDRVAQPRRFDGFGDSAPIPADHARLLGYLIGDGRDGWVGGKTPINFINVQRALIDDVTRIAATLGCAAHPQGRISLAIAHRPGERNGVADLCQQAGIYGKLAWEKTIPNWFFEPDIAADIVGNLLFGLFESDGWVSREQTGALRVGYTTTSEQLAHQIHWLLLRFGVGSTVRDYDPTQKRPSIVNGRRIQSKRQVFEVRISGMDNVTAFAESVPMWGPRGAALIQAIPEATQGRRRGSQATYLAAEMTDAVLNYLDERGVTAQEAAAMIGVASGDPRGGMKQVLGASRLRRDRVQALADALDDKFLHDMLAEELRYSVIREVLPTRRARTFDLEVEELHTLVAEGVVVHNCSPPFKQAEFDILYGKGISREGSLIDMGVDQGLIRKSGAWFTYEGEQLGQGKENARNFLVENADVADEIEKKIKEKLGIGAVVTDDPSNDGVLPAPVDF

Cytochrome P450 2D6 = Cytochrome P450 2D6 (Homo sapiens, UniProt P10635);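 note: CYP2D6 member of a cytochrome P450 panel assay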
INS1 = experiment: beta cell apoptosis inhibitors, cytokine rescue, dose response, luminescence, retest (AID 449756); type: functional, cell-based; conditions: Rattus norvegicus;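 note: cell death triggered by IL-1 beta plus TNF-alpha plus IFN-gamma mixture; protective hits raise ATP signal compared with cytokine alone wells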
[15] = system: Streptococcus sp. 'group A'; experiment: growth inhibition of control SK(-) GAS strain, dose response, counter-screen for streptokinase expression inhibitor project, luminescence, kanamycin, BacTiterGlo, confirmation (AID 1900); type: functional, organism-based
Streptococcus = experiment: Group A Streptococcus viability loss, dose response, counter-screen for streptokinase expression inhibitor project, luminescence, BacTiterGlo (AID 1915); type: functional, organism-based;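 note: potency for reduction of bacterial viability or growth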
Streptokinase A = target: T5, Streptokinase A (Streptococcus pyogenes serotype M1, UniProt P10520); experiment: S. pyogenes streptokinase expression inhibitors, potency, dose response, plasminogen activation absorbance, OD405 (AID 1914); type: functional, Streptococcus pyogenes M1 GAS;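 note: secreted streptokinase activity via plasminogen activation per viability signal from cell pellet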
T5 sequence (P10520 whole entry): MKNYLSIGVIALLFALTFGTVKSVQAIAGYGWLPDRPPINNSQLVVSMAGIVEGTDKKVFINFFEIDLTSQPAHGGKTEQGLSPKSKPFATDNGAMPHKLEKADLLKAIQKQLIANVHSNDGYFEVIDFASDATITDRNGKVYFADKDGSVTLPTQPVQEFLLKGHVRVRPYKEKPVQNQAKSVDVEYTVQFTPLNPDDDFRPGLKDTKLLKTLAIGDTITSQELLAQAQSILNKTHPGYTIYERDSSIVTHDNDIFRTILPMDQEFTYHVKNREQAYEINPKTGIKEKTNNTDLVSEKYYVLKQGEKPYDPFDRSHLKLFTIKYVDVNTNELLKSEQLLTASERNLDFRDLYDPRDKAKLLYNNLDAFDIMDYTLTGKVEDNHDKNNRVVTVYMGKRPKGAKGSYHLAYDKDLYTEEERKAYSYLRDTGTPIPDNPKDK

[16] = target: T6, Ubiquitin-conjugating enzyme E2 N (Homo sapiens, UniProt P61088); type: functional;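 note: Dose-response confirmation in a TR-FRET assay detecting UBC13-driven polyubiquitin chain formation, inhibition measured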
T6 sequence (P61088 whole entry): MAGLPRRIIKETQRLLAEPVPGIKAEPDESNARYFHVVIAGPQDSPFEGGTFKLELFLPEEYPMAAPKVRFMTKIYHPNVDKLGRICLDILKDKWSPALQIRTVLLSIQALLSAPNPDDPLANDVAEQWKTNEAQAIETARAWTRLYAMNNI

[17] = target: G-protein coupled receptor 55 (Homo sapiens, UniProt Q9Y2T6); experiment: GPR55 antagonists, SAR follow-up, counter-screen for GPR35 antagonist project, imaging, image-based (AID 2397); type: functional
G-protein coupled receptor 55, sequence (Q9Y2T6 whole entry): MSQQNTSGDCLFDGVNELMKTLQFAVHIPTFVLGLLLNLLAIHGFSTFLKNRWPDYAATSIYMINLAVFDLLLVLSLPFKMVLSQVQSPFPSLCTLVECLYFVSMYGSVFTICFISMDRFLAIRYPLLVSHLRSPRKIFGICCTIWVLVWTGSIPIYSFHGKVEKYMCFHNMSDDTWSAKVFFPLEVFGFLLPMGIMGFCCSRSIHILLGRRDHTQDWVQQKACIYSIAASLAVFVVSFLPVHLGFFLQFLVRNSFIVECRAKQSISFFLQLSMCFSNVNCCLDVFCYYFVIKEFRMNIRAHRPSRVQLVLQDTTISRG

Cytochrome P450 2D6, sequence (P10635 whole entry): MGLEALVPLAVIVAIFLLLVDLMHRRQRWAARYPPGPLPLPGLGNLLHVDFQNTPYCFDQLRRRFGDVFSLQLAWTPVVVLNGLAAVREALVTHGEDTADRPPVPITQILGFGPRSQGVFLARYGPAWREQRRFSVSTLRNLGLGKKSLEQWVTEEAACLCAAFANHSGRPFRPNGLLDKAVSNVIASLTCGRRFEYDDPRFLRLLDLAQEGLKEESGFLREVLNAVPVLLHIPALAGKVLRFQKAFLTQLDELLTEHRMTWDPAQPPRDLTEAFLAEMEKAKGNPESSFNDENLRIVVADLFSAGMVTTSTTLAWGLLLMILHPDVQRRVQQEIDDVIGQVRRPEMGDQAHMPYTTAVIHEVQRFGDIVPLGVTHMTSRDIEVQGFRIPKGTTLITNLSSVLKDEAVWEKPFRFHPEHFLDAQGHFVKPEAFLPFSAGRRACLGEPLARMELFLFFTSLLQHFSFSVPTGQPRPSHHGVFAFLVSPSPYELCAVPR
Nucleotide-binding oligomerization domain-containing protein 2, sequence (Q9HC29 whole entry, the tested form may be a part): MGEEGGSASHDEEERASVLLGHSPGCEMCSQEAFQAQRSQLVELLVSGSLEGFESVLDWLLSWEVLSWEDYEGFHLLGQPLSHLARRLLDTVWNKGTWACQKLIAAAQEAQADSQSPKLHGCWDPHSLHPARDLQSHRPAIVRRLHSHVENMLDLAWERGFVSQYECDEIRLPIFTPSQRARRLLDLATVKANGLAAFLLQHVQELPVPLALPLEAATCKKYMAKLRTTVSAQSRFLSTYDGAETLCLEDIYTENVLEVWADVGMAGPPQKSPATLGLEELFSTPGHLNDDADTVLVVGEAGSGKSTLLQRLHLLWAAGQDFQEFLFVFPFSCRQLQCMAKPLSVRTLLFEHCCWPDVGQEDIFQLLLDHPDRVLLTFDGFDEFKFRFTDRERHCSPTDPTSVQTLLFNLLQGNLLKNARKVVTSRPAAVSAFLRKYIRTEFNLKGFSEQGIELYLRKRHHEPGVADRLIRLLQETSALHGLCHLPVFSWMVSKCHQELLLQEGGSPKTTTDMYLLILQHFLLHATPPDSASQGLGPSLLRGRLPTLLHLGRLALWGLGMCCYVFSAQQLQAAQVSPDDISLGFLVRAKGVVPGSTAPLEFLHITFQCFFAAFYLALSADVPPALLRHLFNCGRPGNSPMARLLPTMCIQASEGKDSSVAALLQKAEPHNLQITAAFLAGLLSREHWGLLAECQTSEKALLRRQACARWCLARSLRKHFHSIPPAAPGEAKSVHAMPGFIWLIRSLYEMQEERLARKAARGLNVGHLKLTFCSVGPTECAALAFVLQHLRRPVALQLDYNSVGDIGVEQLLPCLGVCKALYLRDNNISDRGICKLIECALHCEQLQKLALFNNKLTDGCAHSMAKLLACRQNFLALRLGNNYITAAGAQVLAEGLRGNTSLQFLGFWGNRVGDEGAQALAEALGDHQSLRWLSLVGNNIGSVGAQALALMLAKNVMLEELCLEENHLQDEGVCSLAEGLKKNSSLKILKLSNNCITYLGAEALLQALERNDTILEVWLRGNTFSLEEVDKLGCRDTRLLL
Nonstructural protein 1, sequence (Q194T2 whole entry): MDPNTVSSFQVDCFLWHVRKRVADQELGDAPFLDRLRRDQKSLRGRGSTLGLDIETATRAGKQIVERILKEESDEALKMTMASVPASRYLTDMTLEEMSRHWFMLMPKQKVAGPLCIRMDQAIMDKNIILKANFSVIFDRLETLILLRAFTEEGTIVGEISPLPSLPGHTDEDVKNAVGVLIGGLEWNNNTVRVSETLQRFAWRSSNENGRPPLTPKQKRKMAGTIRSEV
Phosphomannomutase 2, sequence (O15305 whole entry): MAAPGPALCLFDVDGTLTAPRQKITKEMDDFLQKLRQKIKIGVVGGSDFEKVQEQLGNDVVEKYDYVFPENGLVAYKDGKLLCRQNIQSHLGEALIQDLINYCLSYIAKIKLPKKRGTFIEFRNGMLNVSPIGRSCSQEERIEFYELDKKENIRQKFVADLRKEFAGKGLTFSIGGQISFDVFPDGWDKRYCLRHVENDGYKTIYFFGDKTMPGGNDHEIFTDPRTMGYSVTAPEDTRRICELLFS
SUMO-activating enzyme, sequence (Q9UBE0 whole entry): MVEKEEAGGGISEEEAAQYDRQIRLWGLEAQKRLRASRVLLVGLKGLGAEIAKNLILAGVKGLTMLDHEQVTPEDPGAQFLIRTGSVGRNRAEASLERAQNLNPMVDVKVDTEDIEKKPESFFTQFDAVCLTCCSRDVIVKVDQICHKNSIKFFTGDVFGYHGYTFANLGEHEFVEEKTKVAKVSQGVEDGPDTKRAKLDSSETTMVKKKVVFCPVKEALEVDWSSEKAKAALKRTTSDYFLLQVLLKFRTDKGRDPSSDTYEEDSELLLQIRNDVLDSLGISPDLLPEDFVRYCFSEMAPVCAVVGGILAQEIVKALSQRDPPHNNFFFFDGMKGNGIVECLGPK
SUMO-activating enzyme, sequence (Q9UBT2 whole entry): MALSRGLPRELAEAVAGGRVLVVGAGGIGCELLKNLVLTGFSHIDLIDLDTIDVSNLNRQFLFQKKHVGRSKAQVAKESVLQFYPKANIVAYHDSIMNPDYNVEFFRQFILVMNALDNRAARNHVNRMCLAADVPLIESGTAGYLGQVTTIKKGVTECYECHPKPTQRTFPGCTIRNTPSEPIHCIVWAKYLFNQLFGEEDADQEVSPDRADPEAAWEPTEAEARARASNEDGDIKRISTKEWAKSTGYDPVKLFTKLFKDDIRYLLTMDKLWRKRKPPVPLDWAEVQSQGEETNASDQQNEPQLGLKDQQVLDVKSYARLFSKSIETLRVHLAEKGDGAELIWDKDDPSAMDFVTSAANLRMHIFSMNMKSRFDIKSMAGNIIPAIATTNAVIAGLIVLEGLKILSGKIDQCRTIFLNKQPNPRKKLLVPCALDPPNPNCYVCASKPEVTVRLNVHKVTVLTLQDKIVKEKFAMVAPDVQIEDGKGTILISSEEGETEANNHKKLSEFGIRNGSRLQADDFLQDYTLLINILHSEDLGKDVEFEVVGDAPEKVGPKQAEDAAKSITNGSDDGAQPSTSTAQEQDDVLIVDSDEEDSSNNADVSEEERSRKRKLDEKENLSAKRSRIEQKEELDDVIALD

With CCCn1c(C)cc(C(=O)COc2ccc(C)nc2[N+](=O)[O-])c1C the EC50 [1] was 7.64 µM (active), the IC50 (HEK293 [2]) was > 20 µM (inactive) and the IC50 (HEK293 [3]) was > 20 µM (inactive). For the same compound, the IC50 (Nonstructural protein 1) was > 100 µM (active), the IC50 (HEK293 [4]) was > 20 µM (inactive) and the IC50 (HEK293 [5]) was 3.81 µM (active). For the same compound, the EC50 (HEK293 [6]) was > 20 µM (inactive).
In the case of N#Cc1c(-c2ccccc2)cc(C2CC2)nc1N, the EC50 (HEK293 [7]) is reported as > 59.7 µM (inactive) and the EC50 (HEK293 [8]) is reported as > 59.7 µM (inactive).
For Cc1ccc(NC2Nc3cc(C)nn3S2)c(C)c1 (configuration not stated), the IC50 (Phosphomannomutase 2) was > 100 µM (inactive), the IC50 [9] was > 50 µM (inactive) and the IC50 [10] was 11.2 µM (active).
For O=[N+]([O-])c1cccc(/C=N/c2cccc3ccccc23)c1O, the EC50 [11] was 107 µM (active), the AC50 [12] was 54.6 µM (active) and the IC50 (SUMO-activating enzyme) was 20.4 µM (active). For the same compound, the IC50 [13] was 56.6 µM (active), the EC50 [14] was 3.78 µM (active) and the EC50 (Protein RecA) was 41.9 µM (active).
For C#CCCCO/N=C1/[C@H]2O[C@@H]2[C@@H](O)[C@H]2[C@H]1CCn1c(=O)n(C)c(=O)n12, the AC50 (Cytochrome P450 2D6) was “inconclusive”.
For Cc1nc(Nc2cnc(/C=C/c3cc(C(=O)Nc4cccc(C(F)(F)F)c4)ccc3C)cn2)cc(N2CCNCC2)n1, the EC50 [1] was 8.28 µM (active), the IC50 (HEK293 [2]) was > 20 µM (inactive) and the AC50 (INS1) was 8.7 µM (active). For the same compound, the EC50 [15] was 6.39 µM (active), the EC50 (Streptococcus) was > 150 µM (not active) and the IC50 (HEK293 [3]) was > 20 µM (inactive). For the same compound, the IC50 (HEK293 [4]) was > 20 µM (inactive), the IC50 (HEK293 [5]) was > 20 µM (inactive) and the EC50 (HEK293 [6]) was 7.82 µM (active). For the same compound, the EC50 (Streptokinase A) was 11.4 µM (active) and the IC50 [16] was > 20 µM (inactive).
With CCc1ccc(NC(=O)CSc2nc3ccsc3c(=O)n2Cc2ccc(OC)cc2)cc1 the IC50 [17] was > 32 µM (inactive).
With CCOC(=O)c1c(NC(=O)/C=C/c2ccc3c(c2)OCO3)sc(C)c1C the AC50 (Cytochrome P450 2D6) was “inconclusive”.
